Measured values from patent US6632921B1, “Seryl-lysyl-based peptide and peptidomimetic inhibitors of N-myristoyl transferase as anti-infective agents” (G. D Searle & Co, priority 1995, dated 2003).

Assays:
C. albicans 516 = assay: Antifungal susceptibility testing, pH 7.0/35° C., 1x10^3 cells/mL; format: cell-based, Candida albicans; conditions: Candida albicans, 516, pH 7, read-out: EC50 - 48 HRS C.albicans (516)
Method: (§1) 2) Assay at pH 7.0/35° C. Incubation/(Candida Strains Only).
(§2) Based on several papers published during 1990-1993 regarding the standardization of testing procedures at multiple research centers, and the finding that, inoculum size, pH of media, and the temperature of incubation drastically affect the antifungal activity of several compounds, particularly in the Azole class of antifungals, an additional assay was configured at pH 7.0 for Candida albicans. [M. A. Pfaller et al, Antimicrobial Agents and Chemotherapy, 34, 1648-1654 (1990); F. C. Odds et al, Antimicrobial Agents and Chemotherapy, 36, 1727-1737 (1992); R. A. Cook et al, Antimicrobial Agents and Chemotherapy, 34, 1542-1545 (1990)]
(§3) The assay format is identical to the first one with the following modifications: C.albicans cells are diluted to 1×10^3 cells/ml into 2× buffered YNB (YNB buffered with 1.65 mM MOPS, pH 7.0, with the addition of 2% Dextrose and 0.08% casamino acids mixture, bio 101. inc,cat #10420-100). Incubation is carried out at 35° C. instead of 30° C., and cell growth is monitored at 590 nm at 24 and 48 hrs as described. All other aspects of the assay are identical. This assay was validated with amphotericin B, fluconazole, cilofungin (Ly-121019), Nikkomycin and terbinafine using the following Candida strains- (C.albicans, B311, C.parasilosis, C.tropicalis, C.lusitaniae, C.glabrata, and C. albicans 516)-Table II. All strains were from Dr. Kobayashi, Washington university.

C.glabrata = assay: as above; format: cell-based; conditions: Nakaseomyces glabratus, pH 7, read-out: EC50 - 48 HRS C.glab.
Method: as §1, §2, §3

C.albicans, B311 = assay: as above; format: cell-based; conditions: Candida albicans, B311, pH 7, read-out: EC50 - 48 HRS C.albicans
Method: as §1, §2, §3

C.parasilosis = assay: as above; format: cell-based; conditions: pH 7, read-out: EC50 - 48 HRS C.para
Method: as §1, §2, §3

C.tropicalis = assay: as above; format: cell-based; conditions: Candida tropicalis, pH 7, read-out: EC50 - 48 HRS C.trop.
Method: as §1, §2, §3

C.lusitaniae = assay: as above; format: cell-based; conditions: Clavispora lusitaniae, pH 7, read-out: EC50 - 48 HRS C.lusi.
Method: as §1, §2, §3

human NMT = molecular target: T1, human NMT (Homo sapiens, UniProt P30419); assay: NMT enzyme inhibition assay (radiochemical HPLC end-point), human NMT; format: biochemical; conditions: Table V
T1 construct: made in house; host or cells: E. coli
T1 sequence (P30419 1-416 isoform P30419-2): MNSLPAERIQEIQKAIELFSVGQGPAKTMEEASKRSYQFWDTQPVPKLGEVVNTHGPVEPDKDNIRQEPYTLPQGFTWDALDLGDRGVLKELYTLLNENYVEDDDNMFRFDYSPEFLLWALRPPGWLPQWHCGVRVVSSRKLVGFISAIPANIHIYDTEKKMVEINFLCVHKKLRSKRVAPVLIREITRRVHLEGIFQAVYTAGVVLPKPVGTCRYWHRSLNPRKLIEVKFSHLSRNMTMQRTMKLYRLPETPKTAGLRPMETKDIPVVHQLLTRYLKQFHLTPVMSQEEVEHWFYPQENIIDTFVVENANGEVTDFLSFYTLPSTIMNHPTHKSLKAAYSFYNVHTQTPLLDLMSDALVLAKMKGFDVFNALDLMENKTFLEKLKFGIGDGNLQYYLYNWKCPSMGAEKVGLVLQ
Method: Recombinant Candida albicans and human NMTs were expressed and purified from E. coli using previously described protocols. [D. A. Towler et al, Proc. Natl. Acad. Sci. USA, 84, 2707-2712 (1987); R. C. Weigand et al, J. Biol. Chem., 267, 8591-8598 (1992); R. J. Duronio et al, Proc. Natl. Acad. Sci. USA, 89, 4129-4133 (1992)] The ability of compounds to inhibit Candida NMT enzymatic activity was assessed using a radiochemical HPLC end-point assay as described previously for Saccharomyces cerevisiae and human NMTs. [D. Towler et al, Proc. Natl. Acad. Sci. USA, 83, 2812-2816 (1986); W. J. Rocque et al, J. Biol. Chem., 268, 9964-9971 (1991)] The donor substrate [^3H]myristoyl-coenzyme A was enzymatically synthesized from [^3H]myristic acid (50 Ci/mmol, Amersham, Arlington Heights, Ill.) and coenzyme A (Fluka Chemical Corp., Ronkonkoma, N.Y.), and purified as described previously. [W. J. Rocque et al, J. Biol. Chem., 268, 9964-9971 (1991)] The peptide acceptor substrate GNAASARR-NH2 was prepared by solid-phase peptide synthesis using the t-Boc amino acid methodology, followed by HF treatment and reverse-phase HPLC purification. Inhibitor stock solutions were prepared at 22 mM in DMSO; the final concentration of DMSO in each assay was 0.5% (v/v). […] The reaction was quenched after 10 minutes at 24° C. by the addition of ice-cold MeOH, and the reaction products were separated and measured using C4 reverse-phase HPLC (Vydac 214TP10415; Separations Group, Hesperia, Calif.) and in-line scintillation counting using a Radiomatic A250 (Packard Instruments, Downers Grove, Ill.) and Ecolite(+) (ICN Biomedical, Costa Mesa, Calif.) as the scintillant. Selectivity was determined by calculating the ratio of the IC50 against human NMT to the IC50 against C. albicans NMT.

[1] = test system: Candida albicans, strain B311; assay: Antifungal susceptibility testing, microdilution broth, pH 5.4/30° C./YNB; format: cell-based; conditions: B311, 24 hours, Table V (values agree with pH 5.4 assay), read-out: caEC50 24 hours
Method: Antifungal Screens were set up initially against Candida albicans, strain B311, and Cryotococcus neoformans, strain L210425. Both pathogens, (originally from the stock culture collection, Medical mycology research center, Washington university-Barnes hospital), were obtained from Dr.Kobayashi, Prof.of infectious diseases, Washington University, St.Louis, Mo.
All cultures are maintained at 30° C. on Sabouraud's dextrose agar slants and subcultured at monthly intervals to fresh medium. All inocula for susceptibility testing are prepared in yeast nitogen base(YNB, Difco) broth.
A loopful of growth from Sabouraud dextrose agar slant is inoculated into 4 ml of YNB broth media and incubated at 30° C. overnight (18-24 hrs) with constant agitation (Gyratory Shaker, New Brunswick Scientific). Prior to setting up susceptibility testing, the organisms are counted in a hemocytometer, and diluted as needed into assay media.
1) (Assay at DH 5.4/30° C. Incubation/YNB Media).
Antifungal assays were carried out initially by a modification of the method published by Jones, et. al; (1), and communicated to Searle by Dr. Kobayashi, Washington University. [R. N. Jones et al, Manual of Clinical Microbiology, 4th ed., (1985)]
The antifungal susceptibility testing consists of a microdilution broth procedure performed in 96 well microtiter plates (Costar, cat#3799). Briefly, test compounds from a 20 mM stock solution in DMSO are diluted into sterile, deionized water (final DMSO concentration not exceeding 1%), to yield 2× the desired concentration (100 uM, 10 uM and 1 uM for an initial screen, or a selected concentration range in serial 2 fold dilutions for EC50 determination). One hundred microliters (100 ul) of each concentration is dispensed into triplicate wells of a 96 well microtiter plate. Appropriate dilutions of a suspension of C.albicans (1×10^6 cells/ml) in 2× YNB is distributed into each of the wells, including growth control wells containing no test compound as well as control wells with 0.5% DMSO. Amphotericin B at 0.05, 1 and 5 ug/ml is included in each assay plate as a positive control. The plates are incubated at 30° C. and cell growth is scored by reading the absorbance at 590 nm on an Elisa plate reader(Dynatech, MR.5000).

Candida albicans NMT = molecular target: T2, Candida albicans NMT (Candida albicans, UniProt P30418); assay: NMT enzyme inhibition assay (radiochemical HPLC end-point), Candida NMT; format: biochemical
T2 construct: made in house; host or cells: E. coli
T2 sequence (P30418 1-451): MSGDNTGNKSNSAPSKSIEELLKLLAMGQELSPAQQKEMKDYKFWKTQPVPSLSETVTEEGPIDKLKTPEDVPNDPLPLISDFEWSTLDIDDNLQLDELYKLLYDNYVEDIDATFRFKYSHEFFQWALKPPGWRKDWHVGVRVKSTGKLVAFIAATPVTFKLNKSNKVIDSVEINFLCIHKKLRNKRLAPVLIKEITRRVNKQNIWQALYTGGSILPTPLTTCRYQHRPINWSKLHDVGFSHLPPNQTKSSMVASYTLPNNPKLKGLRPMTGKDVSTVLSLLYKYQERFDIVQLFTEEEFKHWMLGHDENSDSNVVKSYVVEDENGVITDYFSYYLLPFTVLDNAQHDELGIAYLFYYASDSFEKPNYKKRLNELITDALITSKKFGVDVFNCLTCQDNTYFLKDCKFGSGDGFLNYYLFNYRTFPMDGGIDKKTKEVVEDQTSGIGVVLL
Method: Recombinant Candida albicans and human NMTs were expressed and purified from E. coli using previously described protocols. [D. A. Towler et al, Proc. Natl. Acad. Sci. USA, 84, 2707-2712 (1987); R. C. Weigand et al, J. Biol. Chem., 267, 8591-8598 (1992); R. J. Duronio et al, Proc. Natl. Acad. Sci. USA, 89, 4129-4133 (1992)] The ability of compounds to inhibit Candida NMT enzymatic activity was assessed using a radiochemical HPLC end-point assay as described previously for Saccharomyces cerevisiae and human NMTs. [D. Towler et al, Proc. Natl. Acad. Sci. USA, 83, 2812-2816 (1986); W. J. Rocque et al, J. Biol. Chem., 268, 9964-9971 (1991)] The donor substrate [^3H]myristoyl-coenzyme A was enzymatically synthesized from [^3H]myristic acid (50 Ci/mmol, Amersham, Arlington Heights, Ill.) and coenzyme A (Fluka Chemical Corp., Ronkonkoma, N.Y.), and purified as described previously. [W. J. Rocque et al, J. Biol. Chem., 268, 9964-9971 (1991)] The peptide acceptor substrate GNAASARR-NH2 was prepared by solid-phase peptide synthesis using the t-Boc amino acid methodology, followed by HF treatment and reverse-phase HPLC purification. Inhibitor stock solutions were prepared at 22 mM in DMSO; the final concentration of DMSO in each assay was 0.5% (v/v). Inhibition assays were carried out by combining variable amounts of inhibitor or buffer with […] of [^3H]myristoyl-coenzyme A (1 μCi, 9.09 Ci/mmol) and 2.2 nmoles of GNAASARR-NH2 in a total volume of 60 μL of 0.2 M N-[2-hydroxy-ethyl]piperazine-N′-[2-ethanesulfonic acid], pH 7.4, 2 mM DL-dithiothreitol, 0.2 mM ethylene glycol-bis-(β-aminoethyl ether) N,N,N′,N′-tetraacetic acid, and initiating the reaction by the addition of 50 μL of a Candida NMT solution (7-12 ng/50 μL). Assays with human NMT were identical except that they used 60-75 ng/50 μL of enzyme solution and 0.22 nmoles of GNAASARR-NH2. The reaction was quenched after 10 minutes at 24° C. by the addition of ice-cold MeOH, and the reaction products were separated and measured using C4 reverse-phase HPLC (Vydac 214TP10415; Separations Group, Hesperia, Calif.) and in-line scintillation counting using a Radiomatic A250 (Packard Instruments, Downers Grove, Ill.) and Ecolite(+) (ICN Biomedical, Costa Mesa, Calif.) as the scintillant. Selectivity was determined by calculating the ratio of the IC50 against human NMT to the IC50 against C. albicans NMT.

Row | SMILES | EC50 (C. albicans 516) [µM] | EC50 (C.glabrata) [µM] | EC50 (C.albicans, B311) [µM] | EC50 (C.parasilosis) [µM] | EC50 (C.tropicalis) [µM] | EC50 (C.lusitaniae) [µM] | IC50 (human NMT) [µM] | EC50 [1] [µM] | IC50 (Candida albicans NMT; Table V, read-out: IC50 caNMT) [µM] | Selectivity (Candida albicans NMT; ratio of IC50 against human NMT to IC50 against C. albicans NMT)
1 | C[C@@H]([C@H](N)C(=O)N[C@H](C(=O)O)[C@H]1O[C@@H](n2ccc(=O)[nH]c2=O)[C@H](O)[C@@H]1O)[C@H](O)c1ccc(O)cn1 [Nikkomycin] | 11 | > 100 | 4.5 | 13 | > 100 | 28 |  |  |  | 
2 | Cc1nccn1CCCCc1ccc(C(C)C(=O)N[C@@H](CO)C(=O)N[C@@H](CCCCN)C(=O)N[C@@H](CC2CCCCC2)C(=O)O)cc1 (mixture of isomers) [Example 1, L-Alanine, 3-cyclohexyl-N-[N^2-[N-[2-[4-[4-(2-methyl-1H-imidazol-1-yl)butyl]phenyl]oxopropyl]-L-seryl]-L-lysyl]-, (±), bis-trifluoroacetate] |  |  |  |  |  |  | 850 | 33 | 0.4 | 2200
